The results in this text go back to patent publication US20150315241A1, “Antibiotic Peptides” (priority 2007, published 2015).

Test [1] has as its system E. coli BL 21 AI. Briefly: Growth inhibition assay (MIC). Format: cell-based, Escherichia coli. The following applies: 1% TSB, 37° C., 20 hrs. How it is done:
(§1) The minimal inhibition concentrations (MIC) of the apidaecin-derived peptides and peptide-derivatives were determined by a growth inhibition assay using a serial peptide dilution in sterilized round-bottom 96-well plates (polystyrene, U-bottom, Greiner Bio-One GmbH) with a final volume of 100 μL per well. The bacteria, e.g., E. coli BL21 A1, were grown in nutrient broth (NB, Carl Roth GmbH+Co. KG, Karlsruhe, Germany) at 37° C. over night. To each well of the 96-well plate, 50 μL of the overnight culture adjusted to 5×10^6 CFU/mL in 1% TSB were added. Lyophilized peptides and peptidomimetics were dissolved in 1% TSB (tryptic soy broth) or water to give a final concentration of 250 μg/mL. Fifty μL of the peptide or peptidomimetics solution were added to the first well of a row on the plate and mixed. Fifty μL of the first well containing the peptide solution were transferred to the second well, mixed and again 50 μL transferred to the next well and so on. Thereby, a two-fold dilution series was obtained starting at 250 μg/mL in the first well down to 120 ng/mL in the 12th well of a row giving a final peptide or peptidomimetics concentration from 125 μg/mL (well 1) to 60 ng/mL (well 12). Plates were incubated at 37° C. for 20 hrs. The absorbance was measured at 595 nm using a TECAN micro plate spectrophotometer (Tecan, Germany). All peptides and peptidomimetics were measured in triplicates. Sterilized water was used as a negative control.
(§2) The bacteria strains were tested: • Eschericha coli 1103, 10233, BL 21 AI, DC 2, • Klebsiella pneumoniae 681, • Micrococcus luteus ATCC 10240, • Mycobacterium vaccae • Bactillus subtillis 347.

Test [2] deals with M. luteus ATCC 10240. Format: cell-based, Micrococcus luteus. How it is done:
as §1, §2

Values after ≈ are worked out from the molar mass of the structure shown. Where two headings read alike, the source gives them in different places. Where a SMILES comes first, the peptide text is derived from it. [ ]: non-standard residue; d: D form. Hyp = O=C(O)[C@@H]1C[C@@H](O)CN1; Cha = N[C@@H](CC1CCCCC1)C(=O)O; Cit = NC(=O)NCCC[C@H](N)C(=O)O; Tle = CC(C)(C)[C@H](N)C(=O)O; Ac6c = NC1(C(=O)O)CCCCC1; Orn = NCCC[C@H](N)C(=O)O; βAla = NCCC(=O)O

On to `CC[C@H](C)[C@H](NC(=O)[C@H](Cc1ccc(O)cc1)NC(=O)[C@@H](NC(=O)[C@@H]1CCCN1C(=O)[C@H](CCCNC(=N)N)NC(=O)[C@H](CC(N)=O)NC(=O)[C@H](CC(N)=O)NC(=O)[C@H](CCCN)NC(C)=O)C(C)C)C(=O)N1CCC[C@H]1C(=O)N[C@@H](CCC(N)=O)C(=O)N1CCC[C@H]1C(=O)N[C@@H](CCCNC(=N)N)C(=O)N1CCC[C@H]1C(=O)N1CCC[C@H]1C(=O)N[C@@H](Cc1c[nH]cn1)C(=O)N1CCC[C@H]1C(=O)N[C@@H](CCCNC(=N)N)C(=O)N[C@H](CC(C)C)C(N)=O` [compound 72] (Ac-[Orn]NNRPVYIPQPRPPHPR[dL]-NH2), for which the “MIC E. coli BL 21 AI” value in test [1] is more than 125 µg/mL. Moreover, the “MIC M. luteus ATCC 10240” value in test [2] (ATCC 10240, 20 h) was 7.81 µg/mL (≈ 3.54 µM).
On the same counts, the results for `CC[C@H](C)[C@H](NC(=O)[C@H](Cc1ccc(O)cc1)NC(=O)[C@@H](NC(=O)[C@@H]1CCCN1C(=O)[C@H](CCCNC(=N)N)NC(=O)[C@H](CC(N)=O)NC(=O)[C@H](CC(N)=O)NC(=O)[C@H](CCCN)NC(C)=O)C(C)C)C(=O)N1CCC[C@H]1C(=O)N[C@@H](CCC(N)=O)C(=O)N1CCC[C@H]1C(=O)N[C@@H](CCCNC(=N)N)C(=O)N1CCC[C@H]1C(=O)N1CCC[C@H]1C(=O)N[C@@H](Cc1c[nH]cn1)C(=O)N1CCC[C@H]1C(=O)N[C@@H](CCCNC(=N)N)C(=O)N[C@H](C(N)=O)C(C)(C)C` [compound 73] (Ac-[Orn]NNRPVYIPQPRPPHPR[Tle]-NH2) are 62.5 µg/mL (≈ 28.3 µM) and 7.81 µg/mL (≈ 3.54 µM).
As to `CC[C@H](C)[C@H](NC(=O)[C@H](Cc1ccc(O)cc1)NC(=O)[C@@H](NC(=O)[C@@H]1CCCN1C(=O)[C@H](CCCNC(=N)N)NC(=O)[C@H](CC(N)=O)NC(=O)[C@H](CC(N)=O)NC(=O)[C@H](CCCN)NC(C)=O)C(C)C)C(=O)N1CCC[C@H]1C(=O)N[C@@H](CCC(N)=O)C(=O)N1CCC[C@H]1C(=O)N[C@@H](CCCNC(=N)N)C(=O)N1CCC[C@H]1C(=O)N1CCC[C@H]1C(=O)N[C@@H](Cc1c[nH]cn1)C(=O)N1CCC[C@H]1C(=O)N[C@@H](CCCNC(=N)N)C(=O)NCCC(N)=O` [compound 74] (Ac-[Orn]NNRPVYIPQPRPPHPR[βAla]-NH2), in test [1], the “MIC E. coli BL 21 AI” value is more than 125 µg/mL. Moreover, the “MIC M. luteus ATCC 10240” value in test [2] (ATCC 10240, 20 h) stood at 7.81 µg/mL (≈ 3.61 µM).
For the compound `CC[C@H](C)[C@H](NC(=O)[C@H](Cc1ccc(O)cc1)NC(=O)[C@@H](NC(=O)[C@@H]1CCCN1C(=O)[C@H](CCCNC(=N)N)NC(=O)[C@H](CC(N)=O)NC(=O)[C@H](CC(N)=O)NC(=O)[C@H](CCCN)NC(C)=O)C(C)C)C(=O)N1CCC[C@H]1C(=O)N[C@@H](CCC(N)=O)C(=O)N1CCC[C@H]1C(=O)N[C@@H](CCCNC(=N)N)C(=O)N1CCC[C@H]1C(=O)N1CCC[C@H]1C(=O)N[C@@H](Cc1c[nH]cn1)C(=O)N1CCC[C@H]1C(=O)N[C@@H](CCCNC(=N)N)C(=O)NC1(C(N)=O)CCCCC1` [compound 75] (Ac-[Orn]NNRPVYIPQPRPPHPR[Ac6c]-NH2), the “MIC E. coli BL 21 AI” value in test [1] was more than 125 µg/mL. In addition, in test [2] (ATCC 10240, 20 h), the “MIC M. luteus ATCC 10240” value came out at 7.81 µg/mL (≈ 3.52 µM).
On the same counts, the results for `CC[C@H](C)[C@H](NC(=O)[C@H](Cc1ccc(O)cc1)NC(=O)[C@@H](NC(=O)[C@@H]1CCCN1C(=O)[C@H](CCCNC(=N)N)NC(=O)[C@H](CC(N)=O)NC(=O)[C@H](CC(N)=O)NC(=O)CN)C(C)C)C(=O)N1CCC[C@H]1C(=O)N[C@@H](CCC(N)=O)C(=O)N1CCC[C@H]1C(=O)N[C@@H](CCCNC(=N)N)C(=O)N1CCC[C@H]1C(=O)N1CCC[C@H]1C(=O)N[C@@H](Cc1c[nH]cn1)C(=O)N1CCC[C@H]1C(=O)N[C@@H](CCCNC(=N)N)C(=O)N[C@@H](CC1CCCCC1)C(N)=O` [compound 76] (H-GNNRPVYIPQPRPPHPR[Cha]-NH2) are 62.5 µg/mL (≈ 29.1 µM) and 15.63 µg/mL (≈ 7.28 µM).
For `CC[C@H](C)[C@H](NC(=O)[C@H](Cc1ccc(O)cc1)NC(=O)[C@@H](NC(=O)[C@@H]1CCCN1C(=O)[C@H](CCCNC(=N)N)NC(=O)[C@H](CC(N)=O)NC(=O)[C@H](CC(N)=O)NC(=O)CN)C(C)C)C(=O)N1CCC[C@H]1C(=O)N[C@@H](CCC(N)=O)C(=O)N1CCC[C@H]1C(=O)N[C@@H](CCCNC(=N)N)C(=O)N1CCC[C@H]1C(=O)N1CCC[C@H]1C(=O)N[C@@H](Cc1c[nH]cn1)C(=O)N1CCC[C@H]1C(=O)N[C@@H](CCCNC(=N)N)C(=O)N[C@H](CC(C)C)C(N)=O` [compound 77] (H-GNNRPVYIPQPRPPHPR[dL]-NH2) the same measures were more than 125 µg/mL and 31.25 µg/mL (≈ 14.8 µM).
On the same counts, the results for `CC[C@H](C)[C@H](NC(=O)[C@H](Cc1ccc(O)cc1)NC(=O)[C@@H](NC(=O)[C@@H]1CCCN1C(=O)[C@H](CCCNC(=N)N)NC(=O)[C@H](CC(N)=O)NC(=O)[C@H](CC(N)=O)NC(=O)CN)C(C)C)C(=O)N1CCC[C@H]1C(=O)N[C@@H](CCC(N)=O)C(=O)N1CCC[C@H]1C(=O)N[C@@H](CCCNC(=N)N)C(=O)N1CCC[C@H]1C(=O)N1CCC[C@H]1C(=O)N[C@@H](Cc1c[nH]cn1)C(=O)N1CCC[C@H]1C(=O)N[C@@H](CCCNC(=N)N)C(=O)NCCC(N)=O` [compound 79] (H-GNNRPVYIPQPRPPHPR[βAla]-NH2) are more than 125 µg/mL and 62.5 µg/mL (≈ 30.3 µM).
As for `CC[C@H](C)[C@H](NC(=O)[C@H](Cc1ccc(O)cc1)NC(=O)[C@@H](NC(=O)[C@@H]1CCCN1C(=O)[C@H](CCCNC(=N)N)NC(=O)[C@H](CC(N)=O)NC(=O)[C@H](CC(N)=O)NC(=O)CN)C(C)C)C(=O)N1CCC[C@H]1C(=O)N[C@@H](CCC(N)=O)C(=O)N1CCC[C@H]1C(=O)N[C@@H](CCCNC(=N)N)C(=O)N1CCC[C@H]1C(=O)N1CCC[C@H]1C(=O)N[C@@H](Cc1c[nH]cn1)C(=O)N1CCC[C@H]1C(=O)N[C@@H](CCCNC(=N)N)C(=O)NC1(C(N)=O)CCCCC1` [compound 80] (H-GNNRPVYIPQPRPPHPR[Ac6c]-NH2), the “MIC E. coli BL 21 AI” value in test [1] is more than 125 µg/mL. Further, the “MIC M. luteus ATCC 10240” value in test [2] (ATCC 10240, 20 h) was determined as 15.63 µg/mL (≈ 7.37 µM).
With `CC[C@H](C)[C@H](NC(=O)[C@H](CCCNC(=N)N)NC(=O)[C@@H]1CCCN1C(=O)[C@H](Cc1c[nH]cn1)NC(=O)[C@@H]1CCCN1C(=O)[C@@H]1CCCN1C(=O)[C@H](CCCNC(=N)N)NC(=O)[C@@H]1CCCN1C(=O)[C@H](CCCNC(N)=O)NC(=O)[C@@H]1CCCN1C(=O)[C@@H](NC(=O)[C@H](Cc1ccc(O)cc1)NC(=O)[C@@H](NC(=O)[C@@H]1CCCN1C(=O)[C@H](CCCNC(=N)N)NC(=O)[C@H](CC(N)=O)NC(=O)[C@H](CC(N)=O)NC(=O)CN)C(C)C)[C@@H](C)CC)C(N)=O` [compound 89] (H-GNNRPVYIP[Cit]PRPPHPRI-NH2), the “MIC E. coli BL 21 AI” value in test [1] came to 1.95 µg/mL (≈ 0.913 µM). For the same compound, in test [2] (1% TSB, 37° C., 20 hrs), the “MIC M. luteus ATCC 10240” value came out at 15.63 µg/mL (≈ 7.32 µM).
On the same counts, the results for `CC[C@H](C)[C@H](NC(=O)[C@H](CCCNC(=N)N)NC(=O)[C@@H]1CCCN1C(=O)[C@H](Cc1c[nH]cn1)NC(=O)[C@@H]1CCCN1C(=O)[C@@H]1CCCN1C(=O)[C@H](CCCNC(=N)N)NC(=O)[C@@H]1C[C@@H](O)CN1C(=O)[C@H](CCCNC(N)=O)NC(=O)[C@@H]1CCCN1C(=O)[C@@H](NC(=O)[C@H](Cc1ccc(O)cc1)NC(=O)[C@@H](NC(=O)[C@@H]1CCCN1C(=O)[C@H](CCCNC(=N)N)NC(=O)[C@H](CC(N)=O)NC(=O)[C@H](CC(N)=O)NC(=O)CN)C(C)C)[C@@H](C)CC)C(N)=O` [compound 91] (H-GNNRPVYIP[Cit][Hyp]RPPHPRI-NH2) are 1.95 µg/mL (≈ 0.906 µM) and 7.81 µg/mL (≈ 3.63 µM).
